Results from ChEMBL document CHEMBL5046268, “Synthesis, Biological Evaluation, and Molecular Modeling Studies of 3,4-Diarylpyrazoline Series of Compounds as Potent, Nonbrain Penetrant Antagonists of Cannabinoid-1 (CB1R) Receptor with Reduced Lipophilicity” (J Med Chem, 2022).
Calls of active or inactive are those of the source. The calls are words filed in the database; no cut-off is given here.

Assays:
Cannabinoid receptor 1 [1] = target: T1, Cannabinoid receptor 1 (Homo sapiens, UniProt P21554); assay: Antagonist activity at human CB1R expressed in CHO-K1 cell membranes assessed as stimulation of [35S]-GTPgammaS binding by liquid scintillation counting method; type: functional, Cell membrane
Cannabinoid receptor 2 = Cannabinoid receptor 2 (Homo sapiens, UniProt P34972); assay: Displacement of [3H]- CP55940 from human CB2R expressed in CHO-K1 cells membrane by Cheng-Prusoff equation analysis; type: cell membranes, Cell membrane
Cannabinoid receptor 1 [2] = target: T1, Cannabinoid receptor 1; assay: Displacement of [3H]- CP55940 from human CB1R expressed in CHO-K1 cells membrane by Cheng-Prusoff equation analysis; type: cell membranes, Cell membrane
[3] = Drug distribution in C57BL/6J mouse liver at 10 mg/kg, ip incubated for 1 hrs by LC/MS/MS analysis; type: ADME, organism-based; conditions: in vivo
[4] = Ratio of drug level in C57BL/6J mouse brain to plasma at 10 mg/kg, ip incubated for 1 hrs by LC/MS/MS analysis; type: ADME, organism-based; conditions: read-out: BPR
[5] = Drug distribution in C57BL/6J mouse brain at 10 mg/kg, ip incubated for 1 hrs by LC/MS/MS analysis; type: ADME, organism-based; conditions: in vivo
[6] = Drug distribution in C57BL/6J mouse plasma at 10 mg/kg, ip incubated for 1 hrs by LC/MS/MS analysis; type: ADME, organism-based; conditions: in vivo
[7] = target: Nitric oxide synthase, inducible (Homo sapiens) (UniProt P35228); assay: Inhibition of recombinant iNOS (unknown origin) assessed as reduction in L-[3H]-citrulline level using L-[3H]-arginine as substrate at 10 uM by Enzymatic NOS activity assay
Cannabinoid receptor 1 [8] = target: T1, Cannabinoid receptor 1; assay: Inverse agonist activity at human CB1R expressed in CHO-K1 cell membrane assessed as […] in [35S]GTPgammaS binding; type: functional, cell membranes

Chain of Cannabinoid receptor 2 (P34972 whole entry): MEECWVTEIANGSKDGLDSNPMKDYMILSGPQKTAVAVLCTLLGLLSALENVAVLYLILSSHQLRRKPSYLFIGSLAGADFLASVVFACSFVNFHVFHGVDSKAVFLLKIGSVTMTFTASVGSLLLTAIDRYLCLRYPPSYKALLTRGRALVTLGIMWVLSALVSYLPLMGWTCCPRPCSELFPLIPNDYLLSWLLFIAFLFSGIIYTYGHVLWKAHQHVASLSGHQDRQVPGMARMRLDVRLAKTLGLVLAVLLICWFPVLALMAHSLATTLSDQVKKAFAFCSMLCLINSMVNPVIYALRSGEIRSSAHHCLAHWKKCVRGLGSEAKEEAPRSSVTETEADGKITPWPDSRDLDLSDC
Chain of Nitric oxide synthase, inducible (Homo sapiens) (P35228 whole entry): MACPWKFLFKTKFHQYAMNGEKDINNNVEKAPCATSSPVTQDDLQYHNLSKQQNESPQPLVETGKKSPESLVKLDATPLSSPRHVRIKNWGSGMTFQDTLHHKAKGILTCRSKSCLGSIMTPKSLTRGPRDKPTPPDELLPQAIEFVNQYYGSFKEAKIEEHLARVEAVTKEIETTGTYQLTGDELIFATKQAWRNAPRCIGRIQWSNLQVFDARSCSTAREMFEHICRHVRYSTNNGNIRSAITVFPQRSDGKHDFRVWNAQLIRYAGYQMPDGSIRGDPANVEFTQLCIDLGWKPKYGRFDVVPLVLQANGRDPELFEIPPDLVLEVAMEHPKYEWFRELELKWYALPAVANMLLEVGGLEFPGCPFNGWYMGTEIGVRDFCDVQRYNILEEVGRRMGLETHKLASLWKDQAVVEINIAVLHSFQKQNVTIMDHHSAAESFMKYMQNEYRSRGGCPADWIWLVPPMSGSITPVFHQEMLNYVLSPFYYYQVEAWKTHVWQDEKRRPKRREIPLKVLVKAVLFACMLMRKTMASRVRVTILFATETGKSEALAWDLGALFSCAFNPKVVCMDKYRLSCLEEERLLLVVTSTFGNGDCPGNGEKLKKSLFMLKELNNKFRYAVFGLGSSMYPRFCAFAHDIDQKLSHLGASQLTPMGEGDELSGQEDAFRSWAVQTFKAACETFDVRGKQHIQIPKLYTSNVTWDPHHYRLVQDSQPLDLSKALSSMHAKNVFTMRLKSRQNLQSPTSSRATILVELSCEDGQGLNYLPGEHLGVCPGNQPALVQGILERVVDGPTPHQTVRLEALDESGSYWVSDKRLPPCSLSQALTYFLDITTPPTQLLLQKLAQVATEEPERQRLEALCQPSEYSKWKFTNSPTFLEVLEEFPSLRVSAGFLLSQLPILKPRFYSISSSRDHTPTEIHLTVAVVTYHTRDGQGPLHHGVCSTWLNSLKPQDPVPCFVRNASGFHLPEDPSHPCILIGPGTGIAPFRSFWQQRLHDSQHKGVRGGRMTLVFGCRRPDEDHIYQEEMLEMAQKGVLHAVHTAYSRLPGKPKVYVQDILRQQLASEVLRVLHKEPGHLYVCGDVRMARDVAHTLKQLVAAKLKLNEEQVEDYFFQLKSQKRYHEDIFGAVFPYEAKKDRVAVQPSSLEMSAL
T1 sequence (P21554 whole entry): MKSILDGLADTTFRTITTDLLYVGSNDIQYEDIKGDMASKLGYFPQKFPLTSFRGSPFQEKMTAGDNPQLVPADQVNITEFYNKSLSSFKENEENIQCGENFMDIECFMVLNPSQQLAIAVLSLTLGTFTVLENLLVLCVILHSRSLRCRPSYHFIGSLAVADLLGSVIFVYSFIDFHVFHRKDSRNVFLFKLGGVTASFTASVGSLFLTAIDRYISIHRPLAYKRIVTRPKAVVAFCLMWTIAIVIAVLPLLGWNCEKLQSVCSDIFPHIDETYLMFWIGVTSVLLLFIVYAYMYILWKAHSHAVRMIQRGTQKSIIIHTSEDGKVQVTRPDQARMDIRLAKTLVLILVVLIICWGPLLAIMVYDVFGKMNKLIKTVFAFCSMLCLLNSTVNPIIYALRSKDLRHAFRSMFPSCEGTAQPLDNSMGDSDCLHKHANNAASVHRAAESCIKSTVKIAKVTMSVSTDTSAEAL

Structure (SMILES)	IC50 (Cannabinoid receptor 1 [1]; read-out: IC50)	Ki (Cannabinoid receptor 2; read-out: Ki)	Ki (Cannabinoid receptor 1 [2]; read-out: Ki)	inhibition [7]	further results
CC(C)(C)/C(N)=N\C(=N\S(=O)(=O)N1CCCCC1)N1CC(c2ccccc2)C(c2ccc(Cl)cc2)=N1 (stereo unspecified)	129 nM	> 1000 nM	23 nM		
C/C(N)=N\C(=N\S(=O)(=O)N1CCCCC1)N1CC(c2ccccc2)C(c2ccc(Cl)cc2)=N1 (stereo unspecified)	57 nM	> 100 nM	3 nM		Drug uptake [3]: Active; Kp at 1 h [4]: 0.04; Drug uptake [5]: Active; Drug uptake [6]: Active
N/C(=N\C(=N\S(=O)(=O)N1CCOCC1)N1CC(c2ccccc2)C(c2ccc(Cl)cc2)=N1)c1ccc(Cl)cc1 (stereo unspecified)	25 nM	> 1000 nM	19.2 nM		
C/C(N)=N/C(=N/S(=O)(=O)N1CCCC1)N1CC(c2ccccc2)C(c2ccc(Cl)cc2)=N1 (stereo unspecified)	137 nM	> 1000 nM	7.4 nM	Active	
CCN(CC)S(=O)(=O)/N=C(/N=C(\N)c1ccc(Cl)cc1)N1CC(c2ccccc2)C(c2ccc(Cl)cc2)=N1 (stereo unspecified)	86 nM	70 nM	10.8 nM	Active	
CCN(CC)S(=O)(=O)/N=C(/N=C(/C)N)N1CC(c2ccccc2)C(c2ccc(Cl)cc2)=N1 (stereo unspecified)	1.9 nM	> 100 nM	5.9 nM	Active	Drug uptake [3]: Active; Kp at 1 h [4]: 0.025; Drug uptake [5]: Active; Drug uptake [6]: Active
C/C(N)=N/C(=N/S(=O)(=O)N1CCOCC1)N1CC(c2ccccc2)C(c2ccc(Cl)cc2)=N1 (stereo unspecified)	63 nM	> 1000 nM	31 nM		
CCN(CC)S(=O)(=O)/N=C(/N=C(\N)c1ccc(F)cc1)N1CC(c2ccccc2)C(c2ccc(Cl)cc2)=N1 (stereo unspecified)	108 nM	> 1000 nM	5.5 nM	Active	
CS/C(N)=N/C(=N/S(=O)(=O)N1CCOCC1)N1CC(c2ccccc2)C(c2ccc(Cl)cc2)=N1 (stereo unspecified)	91 nM	> 1000 nM	41 nM		
CS/C(N)=N\C(=N\S(=O)(=O)N1CCC(F)(F)CC1)N1CC(c2ccccc2)C(c2ccc(Cl)cc2)=N1 (stereo unspecified)	127 nM	> 100 nM	14 nM		
CC(C)(C)/C(N)=N/C(=N/S(=O)(=O)N1CCOCC1)N1CC(c2ccccc2)C(c2ccc(Cl)cc2)=N1 (stereo unspecified)	34 nM	> 1000 nM	> 100 nM		
N/C(=N\C(=N\S(=O)(=O)N1CCC(F)(F)CC1)N1CC(c2ccccc2)C(c2ccc(Cl)cc2)=N1)c1ccc(Cl)cc1 (stereo unspecified)	4.2 nM	> 1000 nM	5.5 nM		Drug uptake [3]: Active; IC50 (Cannabinoid receptor 1 [8]): 2.5 nM; Kp at 1 h [4]: 0.14; Drug uptake [5]: Active; Drug uptake [6]: Active
C/C(N)=N\C(=N\S(=O)(=O)N1CCC(F)(F)CC1)N1CC(c2ccccc2)C(c2ccc(Cl)cc2)=N1 (stereo unspecified)	15 nM	> 100 nM	3.4 nM		
CC(C)(C)/C(N)=N/C(=N/S(=O)(=O)N1CCCC1)N1CC(c2ccccc2)C(c2ccc(Cl)cc2)=N1 (stereo unspecified)	61 nM	> 1000 nM	> 1000 nM	Active	
N/C(=N\C(=N\S(=O)(=O)N1CCC(C(F)(F)F)CC1)N1CC(c2ccccc2)C(c2ccc(Cl)cc2)=N1)c1ccc(Cl)cc1 (stereo unspecified)	5.4 nM	20 nM	5.5 nM		
N/C(=N\C(=N\S(=O)(=O)N1CCCC1)N1CC(c2ccccc2)C(c2ccc(Cl)cc2)=N1)c1ccc(F)cc1 (stereo unspecified)	115 nM	> 1000 nM	10.5 nM	Active	
CC(C)(C)/C(N)=N/C(=N/S(=O)(=O)N1CCC(F)(F)CC1)N1CC(c2ccccc2)C(c2ccc(Cl)cc2)=N1 (stereo unspecified)	10 nM	> 1000 nM	21 nM		Drug uptake [3]: Active; IC50 (Cannabinoid receptor 1 [8]): 3.2 nM; Kp at 1 h [4]: 0.14; Drug uptake [5]: Active; Drug uptake [6]: Active

Structure (SMILES)	IC50 (Cannabinoid receptor 1 [1]; read-out: IC50)	Ki (Cannabinoid receptor 2; read-out: Ki)	Ki (Cannabinoid receptor 1 [2]; read-out: Ki)	inhibition [7]	further results
N/C(=N/C(=N/S(=O)(=O)N1CCCCC1)N1CC(c2ccccc2)C(c2ccc(Cl)cc2)=N1)c1ccc(F)cc1 (stereo unspecified)	4 nM	36 nM	6.4 nM		
N/C(=N\C(=N\S(=O)(=O)N1CCC(F)(F)CC1)N1CC(c2ccccc2)C(c2ccc(Cl)cc2)=N1)c1ccc(F)cc1 (stereo unspecified)	4.4 nM	28 nM	3.3 nM		
CS/C(N)=N/C(=N/S(=O)(=O)N1CCCC1)N1CC(c2ccccc2)C(c2ccc(Cl)cc2)=N1 (stereo unspecified)	462 nM	> 1000 nM	23 nM	Active	
N/C(=N\C(=N\S(=O)(=O)N1CCC(C(F)(F)F)CC1)N1CC(c2ccccc2)C(c2ccc(Cl)cc2)=N1)c1ccc(F)cc1 (stereo unspecified)	2.77 nM	14 nM	19.8 nM		
CCN(CC)S(=O)(=O)/N=C(/N=C(\N)SC)N1CC(c2ccccc2)C(c2ccc(Cl)cc2)=N1 (stereo unspecified)	388 nM	70 nM	13 nM	Active	
N/C(=N\C(=N\S(=O)(=O)N1CCCC1)N1CC(c2ccccc2)C(c2ccc(Cl)cc2)=N1)c1ccc(Cl)cc1 (stereo unspecified)	427 nM	> 1000 nM	75.3 nM	Active	
CS/C(N)=N\C(=N\S(=O)(=O)N1CCCCC1)N1CC(c2ccccc2)C(c2ccc(Cl)cc2)=N1 (stereo unspecified)	166 nM	> 100 nM	15 nM		
CC(C)(C)/C(N)=N/C(=N/S(=O)(=O)N1CCC(C(F)(F)F)CC1)N1CC(c2ccccc2)C(c2ccc(Cl)cc2)=N1 (stereo unspecified)	2 nM	> 100 nM	1.1 nM		Drug uptake [3]: Active; IC50 (Cannabinoid receptor 1 [8]): 1.8 nM; Kp at 1 h [4]: 0.15; Drug uptake [5]: Active; Drug uptake [6]: Active
CCN(CC)S(=O)(=O)/N=C(/N=C(/C)N)N1C[C@@H](c2ccccc2)C(c2ccc(Cl)cc2)=N1					IC50 (Cannabinoid receptor 1 [1]; cho-k1): Not Active; Ki (Cannabinoid receptor 2; cho-k1): Not Active; Ki (Cannabinoid receptor 1 [2]; cho-k1): Not Active
CS/C(N)=N/C(=N/S(=O)(=O)N1CCC(C(F)(F)F)CC1)N1CC(c2ccccc2)C(c2ccc(Cl)cc2)=N1 (stereo unspecified)	3.6 nM	> 100 nM	2.4 nM		Drug uptake [3]: Active; Kp at 1 h [4]: 0.036; Drug uptake [5]: Active; Drug uptake [6]: Active
C/C(N)=N/C(=N/S(=O)(=O)N1CCC(C(F)(F)F)CC1)N1CC(c2ccccc2)C(c2ccc(Cl)cc2)=N1 (stereo unspecified)	273 nM	> 100 nM	3.9 nM		
N/C(=N/C(=N/S(=O)(=O)N1CCCCC1)N1CC(c2ccccc2)C(c2ccc(Cl)cc2)=N1)c1ccc(Cl)cc1 (stereo unspecified)	6 nM	17 nM	7.8 nM		
CCN(CC)S(=O)(=O)/N=C(/N=C(\N)C(C)(C)C)N1CC(c2ccccc2)C(c2ccc(Cl)cc2)=N1 (stereo unspecified)	375 nM	> 1000 nM	10 nM	Active	
CS/C(N)=N/C(=N/S(=O)(=O)N1CCC(C(F)(F)F)CC1)N1C[C@@H](c2ccccc2)C(c2ccc(Cl)cc2)=N1		> 1000 nM	> 1000 nM		IC50 (Cannabinoid receptor 1 [1]; cho-k1): Not Active
N/C(=N\C(=N\S(=O)(=O)N1CCOCC1)N1CC(c2ccccc2)C(c2ccc(Cl)cc2)=N1)c1ccc(F)cc1 (stereo unspecified)	19 nM	> 1000 nM	39.9 nM		
C/C(N)=N\C(=N\S(=O)(=O)N1CCCCC1)N1C[C@@H](c2ccccc2)C(c2ccc(Cl)cc2)=N1		> 1000 nM	610 nM		IC50 (Cannabinoid receptor 1 [1]; cho-k1): Not Active
